The text below walks through data of patent US9527896B2, “Stabilized p53 peptides and uses thereof” (DANA-FARBER CANCER INSTITUTE, INC., priority 2007, dated 2016).

Where two headings read alike, the source gives them in different places. Bridge positions count the residues as written; N and C are the ends. Square brackets hold non-standard residues; d marks the D form. Peptide text beside a SMILES is read from it. R8 = C=CCCCCCC[C@@](C)(N)C(=O)O; S5 = C=CCCC[C@](C)(N)C(=O)O; βAla = NCCC(=O)O

The nature of one data set: circular dichroism. Particulars: water; pH 7.0; 20 °C; 10-50 uM. In general terms: Circular dichroism is the unequal absorption of left and right circularly polarised light.
A further data set concerns the target T1, HDM2 (Homo sapiens, UniProt Q00987).
T1 construct: Co-Immunoprecipitation of FITC-SAH-p53 Peptides and Endogenous HDM2; endogenous in cells; host or cells: SJSA-1 osteosarcoma cells
The data set can be described thus: Kd (nM). An excerpt:
The patent's description of the figure: FIGS. 1A-1F Synthesis, Sequence, and Biochemical Analysis of SAH-p53 Peptides. FIG. 1A Non-natural amino acids were synthesized as described and cross-linked by ruthenium-catalyzed ring-closing olefin metathesis. […] Note: UAH-p53-8 is the “unstapled” form of SAH-p53-8.

Data set [1] in a line: Ex vivo protease stability in serum. It is filed as in vitro ADME, mouse. On the procedure:
FIG. 5 To determine whether SAH-p53 peptides have increased proteolytic stability, the wild type p5314-29 peptide and SAH-p53-4 were exposed to serum ex vivo.
To assess the protease stability of the peptides, fluoresceinated peptides (2.5 μg) were incubated with fresh mouse serum (20 μL) at 37° C. for 0-24 hours. The level of intact fluoresceinated compound was determined by flash freezing the serum specimens in liquid nitrogen, lyophilization, extraction in 1:1 CH3CN:H2O containing 0.1% TFA, followed by HPLC-based quantitation using fluorescence detection at excitation/emission settings of 495/530 nm.

The target of a further data set is T2, HDM217-125 (Homo sapiens, UniProt Q00987).
T2 construct: plasmid encoding HDM217-125 with an N-terminal hexahistidine tag; hexahistidine tag (N, cleaved yes); thrombin cleavage site (N, cleaved yes); made in house; host or cells: Escherichia coli BL21 (DE3)
The data set can be described thus: Fluorescence polarization binding assay, FITC-peptides and HDM217-125. The conditions noted are these: FITC-labeled derivatives. On the procedure: FIG. 10 Fluorescence polarization binding assay of stapled peptides. Fluoresceinated peptides (5 nM) were incubated with recombinant HDM217-125 (25 pM-10 μM) at room temperature. Binding activity was measured by fluorescence polarization, and Kd values were obtained by […].
A fluorescence polarization binding assay was used to assess binding of peptides to HDM217-125. Fluoresceinated peptides (5 nM) were incubated with recombinant HDM217-125 (25 pM-10 μM) at room temperature. Binding activity was measured by fluorescence polarization, and KD values were obtained by […].
Purified HDM217-125 was prepared as follows. […]
and a thrombin cleavage site were cultured in kanamycin- and chloramphenicol-containing Luria Broth and induced with 0.1 mM isopropyl β-D-thiogalactoside (IPTG). […] Purity of the protein was assessed by SDS-PAGE, FPLC and MALDI-TOF and determined to be >90%. […]
Fluoresceinated compounds (LT=5-25 nM) were incubated with HDM217-125 in binding assay buffer (140 mM NaCl, 50 mM, Tris pH 8.0) at room temperature. Binding activity was measured by fluorescence polarization on a Perkin-Elmer LS50B luminescence spectrophotometer using a cuvette containing a stirbar or a Spectramax M5 Microplate Reader (Molecular Devices). Kd values were determined by nonlinear regression analysis of dose response curves using Prism software 4.0 Graphpad. […]

Data set [2] has as its system SJSA-1 cells.
Excerpt: After washing with PBS, the cells were fixed in 4% paraformaldehyde, washed with PBS, and treated with DAPI-containing (nuclear counterstain) Vectashield mounting medium (Vector), coverslipped and imaged by confocal microscopy (BioRad 1024 or Nikon E800).
Data set [3] concerns SJSA-1 cells. The data set is classed as cell-based. The conditions noted are these: 24 h.
Description: SJSA-1 osteosarcoma cells (4×10^5 cells per well) were incubated in 96-well plates and treated with p53 peptides in serum-free media for 4 hours, followed by serum replacement and additional incubation for 20 hours. Cell viability was assayed by addition of CellTiter-Glo™ bioluminescence reagent (Promega) and reading luminescence in a Spectramax M5 microplate reader (Molecular Devices). The extent of apoptosis was measured through the detection of caspase-3 activity by exposing the cells to a caspase-3-specific substrate (Oncogene). Fluorescence as a result of substrate cleavage was measured in a Spectramax M5 microplate reader (Molecular Devices).
Data set [4] has as its system SJSA-1 cells. The data set is classed as cell-based. The conditions noted are these: 24 h. The source holds these as a separate data set.
Description: The cells were then exposed to a caspase-3 specific substrate (Ac-DEVD-AMC ('DEVD' disclosed as SEQ ID NO: 7)). Fluorescence as a result of cleavage was measured in a microplate reader. To determine the specificity of the activity, certain peptides were incubated alongside DEVD-CHO ('DEVD' disclosed as SEQ ID NO: 7), a substrate known to inhibit caspase-3 specifically. The effect of various peptides on caspase-3 activation was examined as follows. […] The cells were then exposed to a caspase-3 specific substrate. Fluorescence as a result of cleavage was measured in a microplate reader. To determine the specificity of the activity, certain peptides were incubated alongside DEVD-CHO ('DEVD' disclosed as SEQ ID NO: 7), a substrate known to inhibit caspase-3 specifically. […] Cell viability was assayed by addition of CellTiter-GloTM bioluminescence reagent (Promega) and reading luminescence in a Spectramax M5 microplate reader (Molecular Devices). The extent of apoptosis was measured through the detection of caspase-3 activity by exposing the cells to a caspase-3-specific substrate (Oncogene). Fluorescence as a result of substrate cleavage was measured in a Spectramax M5 microplate reader (Molecular Devices).

T1 sequence (Q00987 whole entry, looked up): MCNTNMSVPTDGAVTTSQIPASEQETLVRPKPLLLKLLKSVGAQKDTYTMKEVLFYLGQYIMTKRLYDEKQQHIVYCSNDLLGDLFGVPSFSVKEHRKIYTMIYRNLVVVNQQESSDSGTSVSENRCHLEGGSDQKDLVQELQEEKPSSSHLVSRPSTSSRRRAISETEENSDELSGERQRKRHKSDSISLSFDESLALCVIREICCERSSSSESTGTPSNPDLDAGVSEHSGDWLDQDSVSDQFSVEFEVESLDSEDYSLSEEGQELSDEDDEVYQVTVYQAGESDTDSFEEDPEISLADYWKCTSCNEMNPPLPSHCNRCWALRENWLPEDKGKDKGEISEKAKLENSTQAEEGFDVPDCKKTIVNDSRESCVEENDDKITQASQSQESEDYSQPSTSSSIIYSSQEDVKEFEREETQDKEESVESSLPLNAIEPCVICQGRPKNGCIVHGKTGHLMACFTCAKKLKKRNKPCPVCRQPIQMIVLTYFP
T2 sequence (Q00987 17-125 limits assumed): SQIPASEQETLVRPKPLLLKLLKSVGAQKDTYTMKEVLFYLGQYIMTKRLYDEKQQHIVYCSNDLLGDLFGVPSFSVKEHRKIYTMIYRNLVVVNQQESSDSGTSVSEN

`CC(=O)NCCC(=O)N[C@@H](CC(C)C)C(=O)N[C@@H](CO)C(=O)N[C@@H](CCC(N)=O)C(=O)N[C@@H](CCC(=O)O)C(=O)N[C@H](C(=O)N[C@@H](Cc1ccccc1)C(=O)N[C@@H](CO)C(=O)N[C@@H](CC(=O)O)C(=O)N[C@@H](CC(C)C)C(=O)N[C@@H](Cc1c[nH]c2ccccc12)C(=O)N[C@@H](CCCCN)C(=O)N[C@@H](CC(C)C)C(=O)N[C@@H](CC(C)C)C(=O)N1CCC[C@H]1C(=O)N[C@@H](CCC(=O)O)C(=O)N[C@@H](CC(N)=O)C(N)=O)[C@@H](C)O` registered a helicity in “circular dichroism” of 11%.

For the compound `CC(=O)NCCC(=O)N[C@@H](CC(C)C)C(=O)N[C@@H](CO)C(=O)N[C@@H](CCC(N)=O)C(=O)N[C@@H](CCC(=O)O)C(=O)N[C@]1(C)CCCCCCC=CCCC[C@@](C)(C(=O)N[C@@H](CC(C)C)C(=O)N2CCC[C@H]2C(=O)N[C@@H](CCC(=O)O)C(=O)N[C@@H](CC(N)=O)C(N)=O)NC(=O)[C@H](CCCCN)NC(=O)[C@H](Cc2c[nH]c3ccccc23)NC(=O)[C@H](CC(C)C)NC(=O)[C@H](CC(=O)O)NC(=O)[C@H](CO)NC(=O)[C@H](Cc2ccccc2)NC1=O` (Ac-[βAla]LSQE[R8]FSDLWK[S5]LPEN-NH2; staple 6-13), in the data set “circular dichroism”, the helicity was 10%.

Regarding `CC(=O)NCCC(=O)N[C@@H](CC(C)C)C(=O)N[C@@H](CO)C(=O)N[C@@H](CCC(N)=O)C(=O)N[C@]1(C)CCCCCCC=CCCC[C@@](C)(C(=O)N[C@@H](CC(C)C)C(=O)N[C@@H](CC(C)C)C(=O)N2CCC[C@H]2C(=O)N[C@@H](CCC(=O)O)C(=O)N[C@@H](CC(N)=O)C(N)=O)NC(=O)[C@H](Cc2c[nH]c3ccccc23)NC(=O)[C@H](CC(C)C)NC(=O)[C@H](CC(=O)O)NC(=O)[C@H](CO)NC(=O)[C@H](Cc2ccccc2)NC(=O)[C@H]([C@@H](C)O)NC1=O` (Ac-[βAla]LSQ[R8]TFSDLW[S5]LLPEN-NH2; staple 5-12), the helicity in “circular dichroism” was found to be 12%.

The term Kd denotes a measure of binding affinity in units of concentration. Read a low Kd as tighter binding. As to `CC(=O)NCCC(=O)N[C@@H](CC(C)C)C(=O)N[C@@H](CO)C(=O)N[C@@H](CCC(N)=O)C(=O)N[C@@H](CCC(=O)O)C(=O)N[C@H](C(=O)N[C@@H](Cc1ccccc1)C(=O)N[C@@H](CO)C(=O)N[C@@H](CC(=O)O)C(=O)N[C@]1(C)CCCCCCC=CCCC[C@@](C)(C(N)=O)NC(=O)[C@H](CCC(=O)O)NC(=O)[C@@H]2CCCN2C(=O)[C@H](CC(C)C)NC(=O)[C@H](CC(C)C)NC(=O)[C@H](CCCCN)NC(=O)[C@H](Cc2c[nH]c3ccccc23)NC1=O)[C@@H](C)O` [SAH-p53-1] (Ac-[βAla]LSQETFSD[R8]WKLLPE[S5]-NH2; staple 10-17), on HDM2, the Kd came out at 100 ± 8 nM. Besides, the helicity in “circular dichroism” worked out at 25%.

With `CC(=O)NCCC(=O)N[C@@H](CC(C)C)C(=O)N[C@@H](CO)C(=O)N[C@@H](CCC(N)=O)C(=O)N[C@@H](CCC(=O)O)C(=O)N[C@H](C(=O)N[C@@H](Cc1ccccc1)C(=O)N[C@]1(C)CCCCCCC=CCCC[C@@](C)(C(=O)N[C@@H](CCC(=O)O)C(=O)N[C@@H](CC(N)=O)C(N)=O)NC(=O)[C@H](CC(C)C)NC(=O)[C@H](CC(C)C)NC(=O)[C@H](CCCCN)NC(=O)[C@H](Cc2c[nH]c3ccccc23)NC(=O)[C@H](CC(C)C)NC(=O)[C@H](CC(=O)O)NC1=O)[C@@H](C)O` [SAH-p53-4], on HDM2, the equilibrium dissociation constant (Kd) came out at 0.92 ± 0.11 nM. In data set [1], the proteolytic stability result is recorded as “improved proteolytic stability”. Further, the “serum half-life (t1/2) compared with unmodified wild type peptide” value in data set [1] (exposed to serum ex vivo) was “almost four times longer”. In addition, the HDM2 binding affinity result at HDM217-125 is recorded as “subnanomolar”. This compound also returned a helicity in “circular dichroism” of 59%.

At HDM2, `CC(=O)NCCC(=O)N[C@@H](CC(C)C)C(=O)N[C@@H](CO)C(=O)N[C@@H](CCC(N)=O)C(=O)N[C@@H](CCC(=O)O)C(=O)N[C@H](C(=O)N[C@@H](Cc1ccccc1)C(=O)N[C@]1(C)CCCCCCC=CCCC[C@@](C)(C(=O)N[C@@H](CCC(N)=O)C(=O)N[C@@H](CC(N)=O)C(N)=O)NC(=O)[C@H](CC(C)C)NC(=O)[C@H](CC(C)C)NC(=O)[C@H](CCCCN)NC(=O)[C@H](Cc2c[nH]c3ccccc23)NC(=O)[C@H](CC(C)C)NC(=O)[C@H](CC(N)=O)NC1=O)[C@@H](C)O` [SAH-p53-5] (Ac-[βAla]LSQETF[R8]NLWKLL[S5]QN-NH2; staple 8-15) registered a dissociation constant Kd of 0.8 ± 0.05 nM. The same compound registered a helicity in “circular dichroism” of 20%.

`CC(=O)NCCC(=O)N[C@@H](CCC(N)=O)C(=O)N[C@@H](CO)C(=O)N[C@@H](CCC(N)=O)C(=O)N[C@@H](CCC(N)=O)C(=O)N[C@H](C(=O)N[C@@H](Cc1ccccc1)C(=O)N[C@]1(C)CCCCCCC=CCCC[C@@](C)(C(=O)N[C@@H](CCC(N)=O)C(=O)N[C@@H](CC(N)=O)C(N)=O)NC(=O)[C@H](CC(C)C)NC(=O)[C@H](CC(C)C)NC(=O)[C@H](CCCCN)NC(=O)[C@H](Cc2c[nH]c3ccccc23)NC(=O)[C@H](CC(C)C)NC(=O)[C@H](CC(N)=O)NC1=O)[C@@H](C)O` [SAH-p53-7] (Ac-[βAla]QSQQTF[R8]NLWKLL[S5]QN-NH2; staple 8-15) yielded a Kd on HDM2 of 50 ± 10 nM. The helicity in “circular dichroism” worked out at 36%.

`CC(=O)NCCC(=O)N[C@@H](CCC(N)=O)C(=O)N[C@@H](CO)C(=O)N[C@@H](CCC(N)=O)C(=O)N[C@@H](CCC(N)=O)C(=O)N[C@H](C(=O)N[C@@H](C)C(=O)N[C@]1(C)CCCCCCC=CCCC[C@@](C)(C(=O)N[C@@H](CCC(N)=O)C(=O)N[C@@H](CC(N)=O)C(N)=O)NC(=O)[C@H](CC(C)C)NC(=O)[C@H](CC(C)C)NC(=O)[C@H](CCCNC(=N)N)NC(=O)[C@H](Cc2c[nH]c3ccccc23)NC(=O)[C@H](CC(C)C)NC(=O)[C@H](CC(N)=O)NC1=O)[C@@H](C)O` [SAH-p53-8F19A] (Ac-[βAla]QSQQTA[R8]NLWRLL[S5]QN-NH2; staple 8-15; N-terminus and C-terminus assumed): the dissociation constant Kd on HDM2 was more than 4000 nM. Also, the cellular fluorescence entry in the data set on SJSA-1 cells [2] is “Cellular fluorescence was observed”. Also, in the data set “circular dichroism”, the helicity was determined as 39%.

For orientation: EC50 means the midpoint of the concentration-response curve. A higher EC50 goes with a less potent agent. On to `CC(=O)NCCC(=O)N[C@@H](CCC(N)=O)C(=O)N[C@@H](CO)C(=O)N[C@@H](CCC(N)=O)C(=O)N[C@@H](CCC(N)=O)C(=O)N[C@H](C(=O)N[C@@H](Cc1ccccc1)C(=O)N[C@]1(C)CCCCCCC=CCCC[C@@](C)(C(=O)N[C@@H](CCC(N)=O)C(=O)N[C@@H](CC(N)=O)C(N)=O)NC(=O)[C@H](CC(C)C)NC(=O)[C@H](CC(C)C)NC(=O)[C@H](CCCNC(=N)N)NC(=O)[C@H](Cc2c[nH]c3ccccc23)NC(=O)[C@H](CC(C)C)NC(=O)[C@H](CC(N)=O)NC1=O)[C@@H](C)O` [SAH-p53-8], for which the EC50 came out at 8800 nM in the data set with SJSA-1 cells [3] and 5800 nM in the data set with SJSA-1 cells [4]. For the same compound, at HDM2, binding was characterised by a dissociation constant (Kd) of 55 ± 11 nM. Besides, in the data set on SJSA-1 cells [2], the cellular fluorescence result is recorded as “Cellular fluorescence was observed”. This compound also came in with a helicity in the data set “circular dichroism” of 85%.

In “circular dichroism”, `C=CCCCCCC[C@@](C)(NC(=O)[C@H](Cc1ccccc1)NC(=O)[C@@H](NC(=O)[C@H](CCC(N)=O)NC(=O)[C@H](CCC(N)=O)NC(=O)[C@H](CO)NC(=O)[C@H](CCC(N)=O)NC(=O)CCNC(C)=O)[C@@H](C)O)C(=O)N[C@@H](CC(N)=O)C(=O)N[C@@H](CC(C)C)C(=O)N[C@@H](Cc1c[nH]c2ccccc12)C(=O)N[C@@H](CCCNC(=N)N)C(=O)N[C@@H](CC(C)C)C(=O)N[C@@H](CC(C)C)C(=O)N[C@@](C)(CCCC=C)C(=O)N[C@@H](CCC(N)=O)C(=O)N[C@@H](CC(N)=O)C(N)=O` [UAH-p53-8, Ac-QSQQTF*NLWRKK*QN-NH2] displayed a helicity of 36%.
